Data taken from US12503475B2 (Centessa Pharmaceuticals (UK) Limited, priority 2020, dated 2025).

Biological target: T1, human orexin type 2 receptor (hOX2R) (Homo sapiens, UniProt O43614)
T1 construct: expressed in transfected cells
T1 sequence (O43614 1-444): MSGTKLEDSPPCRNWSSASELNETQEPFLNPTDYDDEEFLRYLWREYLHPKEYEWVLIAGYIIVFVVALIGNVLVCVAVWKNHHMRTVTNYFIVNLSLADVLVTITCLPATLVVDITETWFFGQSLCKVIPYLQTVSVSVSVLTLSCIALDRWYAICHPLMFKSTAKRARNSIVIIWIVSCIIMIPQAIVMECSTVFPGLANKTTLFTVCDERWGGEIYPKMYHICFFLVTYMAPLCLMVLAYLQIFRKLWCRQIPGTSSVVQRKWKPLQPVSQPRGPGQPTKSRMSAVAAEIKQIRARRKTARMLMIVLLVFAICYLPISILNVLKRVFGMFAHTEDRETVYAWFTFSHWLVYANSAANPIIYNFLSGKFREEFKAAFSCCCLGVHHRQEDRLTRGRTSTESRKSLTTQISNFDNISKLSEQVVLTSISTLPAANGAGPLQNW
Assay: Measurement of orexin type 2 receptor agonist activity (FLIPR calcium fluorescence)
Format: cell-based
Details: CHO cells expressing hOX2R, FLIPR calcium fluorescence; for EC50: read-out: hOx2 pEC50 (converted); for Emax: CHO, read-out: hOx2 Emax (%)
Summary of the method: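 Agonism was read as fluorescence in cells stably expressing human OX2R. E. is the response at 10 μM relative to orexin A as full agonist (100%).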

EC50 [nM] | Emax [%] | SMILES
1 to 10 | 90 to 100 | COCCN(C)C(=O)N1CC2(CC2)[C@H](NS(C)(=O)=O)[C@@H]1Cc1cccc(-c2ccccc2)c1F [Compound 326, (6S,7S)-6-((2-fluoro-[1,1′-biphenyl]-3-yl)methyl)-N-(2-methoxyethyl)-N-methyl-7-(methylsulfonamido)-5-azaspiro[2.4]heptane-5-carboxamide]
1 to 10 | 90 to 100 | CCCNC(=O)N1CC2(CC2)[C@H](NS(C)(=O)=O)[C@@H]1Cc1cccc(-c2ccccc2)c1F [Compound 111, (6S,7S)-6-((2-fluoro-[1,1′-biphenyl]-3-yl)methyl)-7-(methylsulfonamido)-N-propyl-5- .azaspiro[2.4]heptane-5-carboxamide]
1 to 10 | 90 to 100 | CC(C#N)C(=O)N1CC2(CC2)[C@H](NS(C)(=O)=O)[C@@H]1Cc1cccc(-c2ccccc2)c1F (stereo partly drawn) [Compound 358, N-((6S,7S)-5-(2-cyanopropanoyl)-6-((2-fluoro-[1,1′-biphenyl]-3-yl)methyl)-5-azaspiro[2.4]heptan-7-yl)methanesulfonamide]
10 to 100 | 90 to 100 | C[C@@H](C#N)S(=O)(=O)N[C@@H]1[C@H](Cc2cccc(-c3ccccc3)c2)N(C(=O)[C@H]2CCO2)CC12CC2 [Compound 338, (S)-N-((6S,7S)-6-([1,1′-biphenyl]-3-ylmethyl)-5-((R)-oxetane-2-carbonyl)-5-azaspiro[2.4]heptan-7-yl)-1-cyanoethane-1-sulfonamide]
10 to 100 | 90 to 100 | CC(C)C(=O)N1CC2(CC2)C(NS(C)(=O)=O)C1Cc1cccc(-c2ccccc2)c1 (racemic) [Compound 15, N-(6-([1,1′-biphenyl]-3-ylmethyl)-5-isobutyryl-5-azaspiro[2.4]heptan-7-yl)methanesulfonamide]
1 to 10 | 90 to 100 | CCNC(=O)N1CC2(CC2)[C@H](NS(C)(=O)=O)[C@@H]1Cc1cccc(-c2ccccc2)c1 (racemic) [Compound 303, 6-([1,1′-biphenyl]-3-ylmethyl)-N-ethyl-7-(methylsulfonamido)-5-azaspiro[2.4]heptane-5-carboxamide]
1 to 10 | 90 to 100 | CC(C)C(=O)N1CC2(CC2)C(NS(C)(=O)=O)C1Cc1cccc(-c2cccc(F)c2)c1 (racemic) [Compound 8, N-(6-((3′-fluoro-[1,1′-biphenyl]-3-yl)methyl)-5-isobutyryl-5-azaspiro[2.4]heptan-7-yl)methanesulfonamide]
10 to 100 | 70 to 80 | COc1c(C[C@H]2[C@@H](NS(C)(=O)=O)C3(CC3)CN2C(=O)NCC(F)(F)F)cccc1-c1ccccc1 [Compound 343, (6S,7S)-6-((2-methoxy-[1,1′-biphenyl]-3-yl)methyl)-7-(methylsulfonamido)-N-(2,2,2-trifluoroethyl)-5-azaspiro[2.4]heptane-5-carboxamide]
1 to 10 | 90 to 100 | C[C@@H](CF)NC(=O)N1CC2(CC2)[C@H](NS(C)(=O)=O)[C@@H]1Cc1cccc(-c2ccccc2)c1F [Compound 337, (6S,7S)-6-((2-fluoro-[1,1′-biphenyl]-3-yl)methyl)-N-((S)-1-fluoropropan-2-yl)-7-(methylsulfonamido)-5-azaspiro[2.4]heptane-5-carboxamide]
1 to 10 | 90 to 100 | C[C@H](F)S(=O)(=O)N[C@@H]1[C@H](Cc2cccc(-c3ccccc3)c2F)N(C(=O)[C@H]2CCO2)CC12CC2 [Compound 194, (R)-1-fluoro-N-((6S,7S)-6-((2-fluoro-[1,1′-biphenyl]-3-yl)methyl)-5-((R)-oxetane-2-carbonyl)-5-azaspiro[2.4]heptan-7-yl)ethane-1-sulfonamide]
1 to 10 | 90 to 100 | CS(=O)(=O)N[C@@H]1[C@H](Cc2cccc(-c3ccccc3)c2F)N(C(=O)NC[C@H]2CCOC2)CC12CC2 [Compound 335, (6S,7S)-6-((2-fluoro-[1,1′-biphenyl]-3-yl)methyl)-7-(methylsulfonamido)-N-(((R)-tetrahydrofuran-3-yl)methyl)-5-azaspiro[2.4]heptane-5-carboxamide]

Continued, molecule first:

SMILES | EC50 [nM] | Emax [%]
CC(C)(O)C(=O)N1CC2(CC2)C(NS(C)(=O)=O)C1Cc1cccc(-c2cc(F)cc(F)c2)c1F (racemic) [Compound 28, N-(5-(2-hydroxy-2-methylpropanoyl)-6-((2,3′,5′-trifluoro-[1,1′-biphenyl]-3-yl)methyl)-5-azaspiro[2.4]heptan-7-yl)methanesulfonamide] | 10 to 100 | 90 to 100
O=C([C@H]1CCO1)N1CC2(CC2)[C@H](NS(=O)(=O)CF)[C@@H]1Cc1cccc(-c2cccc(C(F)(F)F)c2)c1F [Compound 197, 1-fluoro-N-((6S,7S)-6-((2-fluoro-3′-(trifluoromethyl)-[1,1′-biphenyl]-3-yl)methyl)-5-((R)-oxetane-2-carbonyl)-5-azaspiro[2.4]heptan-7-yl)methanesulfonamide] | 10 to 100 | 80 to 90
O=C(NCCF)N1CC2(CC2)[C@H](NS(=O)(=O)CF)[C@@H]1Cc1cc(F)cc(-c2ccccc2)c1F [Compound 371, (6S,7S)-6-((2,5-difluoro-[1,1′-biphenyl]-3-yl)methyl)-N-(2-fluoroethyl)-7-((fluoromethyl)sulfonamido)-5-azaspiro[2.4]heptane-5-carboxamide] | 1 to 10 | 90 to 100
CC(C)(O)C(=O)N1CC2(CC2)[C@H](NS(=O)(=O)CF)[C@@H]1Cc1cc(F)cc(-c2cc(F)cc(F)c2)c1F [Compound 419, 1-fluoro-N-((6S,7S)-5-(2-hydroxy-2-methylpropanoyl)-6-((2,3′,5,5′-tetrafluoro-[1,1′-biphenyl]-3-yl)methyl)-5-azaspiro[2.4]heptan-7-yl)methanesulfonamide] | 1 to 10 | 90 to 100
O=C([C@@H](O)C(F)F)N1CC2(CC2)[C@H](NS(=O)(=O)C(F)F)[C@@H]1Cc1cccc(-c2ccccc2)c1F [Compound 198, N-((6S,7S)-5-((R)-3,3-difluoro-2-hydroxypropanoyl)-6-((2-fluoro-[1,1′-biphenyl]-3-yl)methyl)-5-azaspiro[2.4]heptan-7-yl)-1,1-difluoromethanesulfonamide] | 1 to 10 | 90 to 100
CC(C)(O)C(=O)N1CC2(CC2)[C@H](NS(=O)(=O)CF)[C@@H]1Cc1cccc(-c2cc(F)cc(F)c2)c1F [Compound 192, 1-fluoro-N-((6S,7S)-5-(2-hydroxy-2-methylpropanoyl)-6-((2,3′,5′-trifluoro-[1,1′-biphenyl]-3-yl)methyl)-5-azaspiro[2.4]heptan-7-yl)methanesulfonamide] | 1 to 10 | 90 to 100
CN(C)S(=O)(=O)N[C@@H]1[C@H](Cc2cc(F)cc(-c3cccc(F)c3)c2F)N(C(=O)[C@H]2CCO2)CC12CC2 [Compound 124, 1-fluoro-N-((6S,7S)-5-((R)-oxetane-2-carbonyl)-6-((2,3′,5-trifluoro-[1,1′-biphenyl]-3-yl)methyl)-5-azaspiro[2.4]heptan-7-yl)-N,N-dimethylsulfuric diamide] | 0.0794 to 1 | 80 to 90
O=C([C@@H](O)C1CC1)N1CC2(CC2)[C@H](NS(=O)(=O)C(F)F)[C@@H]1Cc1cccc(-c2ccccc2)c1F [Compound 170, N-((6S 7S)-5-((S)-2-cyclopropyl-2-hydroxyacetyl)-6-((2-fluoro-[1,1′-biphenyl]-3-yl)methyl)-5-azaspiro[2.4]heptan-7-yl)-1,1-difluoromethanesulfonamide] | 1 to 10 | 90 to 100
